Measurements as given in patent US5087573A, “Monoclonal antibody against bone alkaline phosphatase” (University of Kansas, priority 1988, dated 1992).

Target: T1, purified alkaline phosphatase from human osteosarcoma (bone isoenzyme) (Homo sapiens, UniProt P05186)
T1 construct: Human Osteosarcoma obtained from nude mice (nu/nu) was frozen at -70° C. until required; from tissue; host or cells: human osteosarcoma tumour tissue obtained from nude mice (nu/nu); enzyme purified by n-butanol extraction, acetone and ammonium sulfate precipitation, Bio Gel-HT, DEAE Sepharose and Sephacryl S-400
T1 sequence (P05186 18-502 limits assumed): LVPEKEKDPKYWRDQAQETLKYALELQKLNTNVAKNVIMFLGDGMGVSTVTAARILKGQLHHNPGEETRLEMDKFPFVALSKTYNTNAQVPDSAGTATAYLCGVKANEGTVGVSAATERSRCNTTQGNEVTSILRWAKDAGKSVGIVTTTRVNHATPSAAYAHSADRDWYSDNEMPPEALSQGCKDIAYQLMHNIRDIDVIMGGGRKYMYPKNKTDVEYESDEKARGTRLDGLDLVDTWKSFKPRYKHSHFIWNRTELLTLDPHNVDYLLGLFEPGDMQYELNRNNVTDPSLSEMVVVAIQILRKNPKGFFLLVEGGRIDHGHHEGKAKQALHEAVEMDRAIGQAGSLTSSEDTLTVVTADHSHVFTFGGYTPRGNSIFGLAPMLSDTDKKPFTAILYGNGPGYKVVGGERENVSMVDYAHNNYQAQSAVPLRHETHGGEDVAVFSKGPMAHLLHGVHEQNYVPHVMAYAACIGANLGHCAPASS
Assay: Inhibition of alkaline phosphatase by amino acids (release of p-nitrophenol from p-nitrophenylphosphate)
Type: biochemical
Details: amino acid at 5 mM in the reaction mixture; 4 mM p-nitrophenylphosphate, pH 10.2
Procedure: The enzyme was assayed by measuring the release of p-nitrophenol from p-nitro-phenylphosphate at ambient temperature using a Gilford (model 250) recording spectrophotometer. The assay mixture (0.5 ml) contained 0.3M 2-amino-2-methyl-1-propanol, pH 10.2, 4 mM p-nitrophenylphosphate, 20 ug MgCl2 and 10 ul of diluted enzyme (u=micro). The formation of p-nitrophenol was measured spectrophotometrically at 410 nm. Units represent u moles of p-nitrophenol formed per minute at 22° C.
In order to define more clearly the isoenzyme, inhibition studies using amino acids were applied to the enzyme samples. The assay was carried out in the presence of L-homoarginine or L-phenylalanine at 5 mM concentration in the reaction mixtures respectively.
Based on the sensitivity to heat inactivation and inhibitions by L-homoarginine and L-phenylalanine, the properties of alkaline phosphatase from human osteosarcoma are consistent with those of the bone isoenzyme. It is generally considered in the art that the ALP from normal bone and osteosarcoma are probably identical.

| Compound | inhibition at 5000 µM [%] |
| --- | --- |
| N[C@@H](Cc1ccccc1)C(=O)O [L-phenylalanine] | 5 |
| N=C(N)NCCCC[C@H](N)C(=O)O [L-homoarginine] | 64 |
